Converted amounts (≈) assume the structure as drawn.
Test system: Mycobacterium tuberculosis
Assay: Antimycobacterial activity against Mycobacterium tuberculosis H37Rv assessed as inhibition of bacterial growth by MABA assay
Format: functional

SMILES | MIC
CC#CCn1c(N2CCN(C(=O)Cc3ccc(F)cc3)CC2)nc2c1c(=O)n(Cc1ccc(F)c(F)c1)c(=O)n2C | 44.3 µM (≈ 25 µg/mL)
CC#CCn1c(N2CCN(C(=S)Nc3ccc(Cl)cc3)CC2)nc2c1c(=O)n(Cc1ccc(F)c(F)c1)c(=O)n2C | 34.5 µM (≈ 20.6 µg/mL)
CC#CCn1c(N2CCN(C(=O)C3CCCCN3C(=O)OC(C)(C)C)CC2)nc2c1c(=O)n(Cc1ccc(F)c(F)c1)c(=O)n2C (stereo not drawn) | 39.1 µM (≈ 25 µg/mL)
CC#CCn1c(N2CCN(S(=O)(=O)c3cccc(Cl)c3)CC2)nc2c1c(=O)n(Cc1ccc(F)c(F)c1)c(=O)n2C | 12.5 µM (≈ 7.51 µg/mL)
CC#CCn1c(N2CCN(C(=O)C3CCC3)CC2)nc2c1c(=O)n(Cc1ccc(F)c(F)c1)c(=O)n2C | 49 µM (≈ 25 µg/mL)
CC#CCn1c(N2CCN(C(=O)Nc3ccc(C(F)(F)F)cc3)CC2)nc2c1c(=O)n(Cc1ccc(F)c(F)c1)c(=O)n2C | 5.08 µM (≈ 3.13 µg/mL)
CC#CCn1c(N2CCN(S(=O)(=O)c3ccccc3)CC2)nc2c1c(=O)n(Cc1ccc(F)c(F)c1)c(=O)n2C | 44 µM (≈ 25 µg/mL)
CC#CCn1c(N2CCN(C(=S)Nc3ccccc3Br)CC2)nc2c1c(=O)n(Cc1ccc(F)c(F)c1)c(=O)n2C | 39 µM (≈ 25.1 µg/mL)
CC#CCn1c(N2CCN(C(=O)Nc3ccc(Cl)cc3)CC2)nc2c1c(=O)n(Cc1ccc(F)c(F)c1)c(=O)n2C | 41 µM (≈ 23.9 µg/mL)
O=C(O)c1cn(C2CC2)c2cc(N3CCNCC3)c(F)cc2c1=O [CIPROFLOXACIN] | 0.94 µM (≈ 0.311 µg/mL)
NNC(=O)c1ccncc1 [ISONIAZID] | 0.66 µM (≈ 0.0905 µg/mL)
CC#CCn1c(N2CCN(C(=O)c3cccnc3C(F)(F)F)CC2)nc2c1c(=O)n(Cc1ccc(F)c(F)c1)c(=O)n2C | 41.6 µM (≈ 25 µg/mL)
CC#CCn1c(N2CCN(C(=O)Nc3cccc(C(F)(F)F)c3)CC2)nc2c1c(=O)n(Cc1ccc(F)c(F)c1)c(=O)n2C | 20.3 µM (≈ 12.5 µg/mL)
CC#CCn1c(N2CCN(C(=O)C34CC5CC(CC(C5)C3)C4)CC2)nc2c1c(=O)n(Cc1ccc(F)c(F)c1)c(=O)n2C | 43.4 µM (≈ 25.6 µg/mL)
CC#CCn1c(N2CCN(C(=O)Nc3ccccc3Cl)CC2)nc2c1c(=O)n(Cc1ccc(F)c(F)c1)c(=O)n2C | 49.2 µM (≈ 28.7 µg/mL)
CC#CCn1c(N2CCN(C(=S)Nc3c(F)cccc3Cl)CC2)nc2c1c(=O)n(Cc1ccc(F)c(F)c1)c(=O)n2C | 40.6 µM (≈ 25 µg/mL)
CC[C@@H](CO)NCCN[C@@H](CC)CO [ETHAMBUTOL] | 7.63 µM (≈ 1.56 µg/mL)

SMILES | MIC
CC#CCn1c(N2CCN(C(=O)c3cccc4ccccc34)CC2)nc2c1c(=O)n(Cc1ccc(F)c(F)c1)c(=O)n2C | 53.3 µM (≈ 31 µg/mL)
CC#CCn1c(N2CCN(C(=O)c3nccnc3Cl)CC2)nc2c1c(=O)n(Cc1ccc(F)c(F)c1)c(=O)n2C | 44 µM (≈ 25 µg/mL)
CC#CCn1c(N2CCN(C(=O)c3sccc3Cl)CC2)nc2c1c(=O)n(Cc1ccc(F)c(F)c1)c(=O)n2C | 43.7 µM (≈ 25 µg/mL)
CC#CCn1c(N2CCN(C(=S)Nc3cccc(Cl)c3)CC2)nc2c1c(=O)n(Cc1ccc(F)c(F)c1)c(=O)n2C | 7.17 µM (≈ 4.29 µg/mL)
CC#CCn1c(N2CCN(C(=O)C3CCC(C(F)(F)F)CC3)CC2)nc2c1c(=O)n(Cc1ccc(F)c(F)c1)c(=O)n2C (stereo not drawn) | 16.4 µM (≈ 9.97 µg/mL)
C=CCNC(=O)N1CCN(c2nc3c(c(=O)n(Cc4ccc(F)c(F)c4)c(=O)n3C)n2CC#CC)CC1 | 52.4 µM (≈ 26.8 µg/mL)
CC#CCn1c(N2CCN(C(=S)Nc3ccccc3Cl)CC2)nc2c1c(=O)n(Cc1ccc(F)c(F)c1)c(=O)n2C | 41.9 µM (≈ 25 µg/mL)
CC#CCn1c(N2CCN(C(=O)Nc3ccc(SC)cc3)CC2)nc2c1c(=O)n(Cc1ccc(F)c(F)c1)c(=O)n2C | 10.3 µM (≈ 6.13 µg/mL)
CC#CCn1c(N2CCN(C(=O)c3ccc(C(F)(F)F)cc3)CC2)nc2c1c(=O)n(Cc1ccc(F)c(F)c1)c(=O)n2C | 51.5 µM (≈ 30.9 µg/mL)
CC#CCn1c(N2CCN(C(=O)c3cccc(F)c3)CC2)nc2c1c(=O)n(Cc1ccc(F)c(F)c1)c(=O)n2C | 45.4 µM (≈ 25 µg/mL)
CC#CCn1c(N2CCN(C(=O)COc3ccccc3)CC2)nc2c1c(=O)n(Cc1ccc(F)c(F)c1)c(=O)n2C | 44.5 µM (≈ 25 µg/mL)
CC#CCn1c(N2CCN(C(=O)c3ccccc3C(F)(F)F)CC2)nc2c1c(=O)n(Cc1ccc(F)c(F)c1)c(=O)n2C | 41.6 µM (≈ 25 µg/mL)
CC#CCn1c(N2CCN(C(=O)c3csc(Br)n3)CC2)nc2c1c(=O)n(Cc1ccc(F)c(F)c1)c(=O)n2C | 40.5 µM (≈ 25.1 µg/mL)
CC#CCn1c(N2CCN(C(=O)C3Cc4ccccc4N3)CC2)nc2c1c(=O)n(Cc1ccc(F)c(F)c1)c(=O)n2C (stereo not drawn) | 43.6 µM (≈ 25 µg/mL)
CC#CCn1c(N2CCN(C(=O)CCc3ccc(F)cc3)CC2)nc2c1c(=O)n(Cc1ccc(F)c(F)c1)c(=O)n2C | 43.2 µM (≈ 25 µg/mL)
CC#CCn1c(N2CCN(C(=O)c3c(F)cc(OC)cc3F)CC2)nc2c1c(=O)n(Cc1ccc(F)c(F)c1)c(=O)n2C | 41.8 µM (≈ 25 µg/mL)
